{
  "source": "paper PMC5826917",
  "about": "“A small molecule inhibitor of Nicotinamide N-methyltransferase for the treatment of metabolic disorders” (Scientific Reports, 2018)",
  "key": {"[1]": {"tested_on": "K+ Channel Voltage Dependent", "assay": "Selectivity panel: K+ channel", "type": "binding", "conditions": "10 µM"}, "[2]": {"molecular_target": "Adenosine Receptor 2A (ADORA2A) (Homo sapiens, UniProt P29274)", "sequence (P29274 whole entry)": "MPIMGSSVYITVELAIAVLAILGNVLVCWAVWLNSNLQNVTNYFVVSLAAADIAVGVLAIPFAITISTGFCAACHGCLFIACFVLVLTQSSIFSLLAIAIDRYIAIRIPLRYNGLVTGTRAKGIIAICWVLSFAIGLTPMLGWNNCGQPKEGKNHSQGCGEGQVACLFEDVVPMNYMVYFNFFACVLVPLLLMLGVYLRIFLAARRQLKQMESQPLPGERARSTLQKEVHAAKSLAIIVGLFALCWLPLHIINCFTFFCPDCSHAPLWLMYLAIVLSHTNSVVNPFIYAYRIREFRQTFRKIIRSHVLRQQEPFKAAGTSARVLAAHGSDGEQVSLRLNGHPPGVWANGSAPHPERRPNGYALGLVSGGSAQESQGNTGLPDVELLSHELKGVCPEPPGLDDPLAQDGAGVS", "assay": "Selectivity panel: ADORA2A", "type": "cell-based"}, "[3]": {"tested_on": "endogenous NNMT activity in U2OS cells", "assay": "Cell based U2OS assay (MNA levels by LC-MS/MS)", "conditions": "Homo sapiens, 24 h treatment", "protocol": "PE-Sciex API-4000 triple quadrupole (PerkinElmerSciex Instruments, Boston, MA) mass spectrometer was employed for this analysis. […] Detection of the ions was performed in the multiple reaction monitoring (MRM) mode, monitoring the transition of the m/z 137 precursor ion to the m/z 92 product ion for MNA and m/z 141 precursor ion to the m/z 84 product ion for d4-MNA (internal standard).\nThe supernatant was separated and transferred to pre-labeled HPLC vials and analyzed by LC-MS/MS system."}, "in vitro": {"assay": "in vitro", "conditions": "human, microsomes, Metabolic stability human microsomes (% remaining)"}, "[4]": {"molecular_target": "Serotonin Receptor 2A (5HT2A) (Homo sapiens, UniProt P28223)", "sequence (P28223 whole entry)": "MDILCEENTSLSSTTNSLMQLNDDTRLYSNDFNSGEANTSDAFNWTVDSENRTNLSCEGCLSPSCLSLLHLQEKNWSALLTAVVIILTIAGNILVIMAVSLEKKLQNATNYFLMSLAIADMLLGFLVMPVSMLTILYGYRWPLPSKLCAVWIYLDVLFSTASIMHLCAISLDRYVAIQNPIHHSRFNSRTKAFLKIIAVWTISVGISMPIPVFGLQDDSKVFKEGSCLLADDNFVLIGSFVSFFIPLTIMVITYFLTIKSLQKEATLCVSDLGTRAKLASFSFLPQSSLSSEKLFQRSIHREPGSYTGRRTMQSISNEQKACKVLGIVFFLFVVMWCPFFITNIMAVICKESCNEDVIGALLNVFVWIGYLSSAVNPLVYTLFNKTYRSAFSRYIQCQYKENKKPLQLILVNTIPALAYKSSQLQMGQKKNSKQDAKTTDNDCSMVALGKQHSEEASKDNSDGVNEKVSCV", "assay": "Selectivity panel: 5HT2A", "type": "cell-based", "protocol": "(§1) Supplement 41598_2018_22081_MOESM1_ESM.docx, table 2: Supplementary table 2: Selectivity profile of JBSNF-000088 (at 10 µM) vs a panel of 34 receptors, channels and enzymes. | column: E% (agonistic); I% (antagonistic or inhibitory)"}, "[5]": {"molecular_target": "Cannabinoid Receptor 2 (CB2) (Homo sapiens, UniProt P34972)", "sequence (P34972 whole entry)": "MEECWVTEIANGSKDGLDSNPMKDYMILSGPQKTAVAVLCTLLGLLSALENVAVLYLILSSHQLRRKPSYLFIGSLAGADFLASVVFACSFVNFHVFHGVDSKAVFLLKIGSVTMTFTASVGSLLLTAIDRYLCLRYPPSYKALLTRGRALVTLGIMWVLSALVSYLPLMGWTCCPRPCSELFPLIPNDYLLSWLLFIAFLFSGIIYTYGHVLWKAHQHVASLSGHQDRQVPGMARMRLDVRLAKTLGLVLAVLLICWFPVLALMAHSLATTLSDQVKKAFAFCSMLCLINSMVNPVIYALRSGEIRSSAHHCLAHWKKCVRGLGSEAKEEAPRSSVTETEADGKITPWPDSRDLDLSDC", "assay": "Selectivity panel: CB2", "type": "cell-based", "protocol": "as §1"}, "[6]": {"molecular_target": "cGMP-inhibited 3,5-cyclic phosphodiesterase A (PDEA3) (Homo sapiens, UniProt Q14432)", "sequence (Q14432 whole entry)": "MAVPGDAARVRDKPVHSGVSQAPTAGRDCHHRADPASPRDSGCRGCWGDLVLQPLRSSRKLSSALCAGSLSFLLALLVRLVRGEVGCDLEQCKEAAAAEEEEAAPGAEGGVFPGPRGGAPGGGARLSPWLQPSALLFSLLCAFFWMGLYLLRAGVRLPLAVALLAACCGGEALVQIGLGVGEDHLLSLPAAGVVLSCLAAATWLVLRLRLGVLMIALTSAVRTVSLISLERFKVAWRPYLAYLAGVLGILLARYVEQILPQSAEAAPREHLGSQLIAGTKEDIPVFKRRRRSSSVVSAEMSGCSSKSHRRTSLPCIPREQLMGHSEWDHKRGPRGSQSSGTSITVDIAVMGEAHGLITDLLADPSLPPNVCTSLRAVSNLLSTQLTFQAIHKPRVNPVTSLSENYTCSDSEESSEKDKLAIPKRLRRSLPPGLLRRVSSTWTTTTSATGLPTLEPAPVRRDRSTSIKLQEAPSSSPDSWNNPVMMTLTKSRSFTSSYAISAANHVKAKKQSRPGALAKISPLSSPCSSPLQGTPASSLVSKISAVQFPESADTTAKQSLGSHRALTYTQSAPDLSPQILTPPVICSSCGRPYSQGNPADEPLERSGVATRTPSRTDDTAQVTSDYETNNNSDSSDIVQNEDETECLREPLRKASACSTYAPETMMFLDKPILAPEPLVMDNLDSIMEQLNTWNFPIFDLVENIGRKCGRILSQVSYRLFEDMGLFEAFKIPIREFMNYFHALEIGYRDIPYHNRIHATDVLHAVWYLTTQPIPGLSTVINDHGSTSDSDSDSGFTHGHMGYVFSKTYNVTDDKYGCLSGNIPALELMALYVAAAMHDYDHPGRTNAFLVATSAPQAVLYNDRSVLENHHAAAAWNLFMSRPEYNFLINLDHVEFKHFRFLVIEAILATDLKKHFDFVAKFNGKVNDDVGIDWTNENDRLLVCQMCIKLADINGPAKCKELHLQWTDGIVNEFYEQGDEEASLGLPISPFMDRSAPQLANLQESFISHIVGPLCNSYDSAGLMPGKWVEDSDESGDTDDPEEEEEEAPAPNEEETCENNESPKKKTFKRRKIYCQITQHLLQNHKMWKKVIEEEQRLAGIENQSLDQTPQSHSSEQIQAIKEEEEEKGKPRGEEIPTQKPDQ", "assay": "Selectivity panel: PDEA3", "type": "biochemical", "conditions": "read-out: I% (antagonistic or inhibitory), PDEA3"}, "ob/ob mice": {"tested_on": "ob/ob mice", "assay": "Chronic efficacy study in ob/ob mice", "type": "in vivo, mouse", "protocol": "Samples for MNA were analyzed employing a fit-for-purpose LC-MS/MS method. PE-Sciex API-4000 triple quadrupole (PerkinElmerSciex Instruments, Boston, MA) mass spectrometer was employed for this analysis. Samples (5 µL) were injected onto Kinetex HILIC (50 × 4.6 mm, 2.6 µm; Phenomenex, Torrance, CA, USA) column connected to Shimadzu VP (Shimadzu, Japan) LC system. The gradient mobile phase mixture of 0.2% formic acid and acetonitrile was delivered at a flow rate of 0.45 ml min-1 into the mass spectrometer electrospray ionization (ESI) chamber. Quantitation was achieved by MS/MS detection in positive ion mode for MNA and internal standard (d4–MNA). Detection of the ions was performed in the multiple reaction monitoring (MRM) mode, monitoring the transition of the m/z 137 precursor ion to the m/z 92 product ion for MNA and m/z 141 precursor ion to the m/z 84 product ion for d4-MNA (internal standard).\nA simple protein precipitation extraction method was followed for extraction of N-methylnicotinamide from plasma and various tissue homogenate samples. The tissue samples were homogenized with 1:3 proportions of phosphate buffer saline (PBS) and this homogenate was used for N-Methylnicotinamide determinations. To an aliquot of ~50 μL of plasma/ liver homogenate/ adipose tissue homogenate samples ~300 µl of acetonitrile containing IS (d4-MNA) solution was added, followed by vortex for ~3 minutes and centrifuged for 10 minutes at 14,000 rpm. The supernatant was separated and transferred to pre-labeled HPLC vials and analyzed by LC-MS/MS system.\nMale C57BL6/N (Vivo Bio Tech Ltd, India), ob/ob (B6.V-Lepob/OlaHsd) and its lean control (Envigo laboratories Inc, USA) and db/db (BKS.Cg- + Leprdb/ + Leprdb/OlaHsd) and its lean control (Envigo laboratories Inc, USA) were housed in individually ventilated cages (n = 5/cage) under standard laboratory conditions. The study room environment was maintained at a temperature of 21–24 °C and, relative humidity at 40–70%. The animal rooms were maintained under 12 h light and dark cycle. Animals were provided with ad libitum access to water and food (except where noted otherwise, e.g. during fasting prior for glucose tolerance tests, fasting prior to terminal sacrifice). Animals were acclimatized for 1 week before initiation of studies. For Diet induced obesity (DIO) mice study, C57BL6/N mice were maintained on rodents chow diet (Teklad; Harlan) or HFD (60% Kcal; Research diet) for 14 weeks before study initiation and throughout the study period. ob/ob and db/db mice and their lean controls were maintained on rodents chow diet (Teklad; Harlan). All the experiments were approved by Institutional Animal Ethics Committee (IAEC) of Jubilant Biosys Ltd, India.\nLean control + Vehicle and HFD + Vehicle Control groups (G1 and G2) mice were administered with vehicle. Dose formulations of HFD + JBSNF-000088, 50 mg kg^−1, po, bid were administered at dose volume of 5 mL kg^−1 body weight to G3 mice. Similar pattern was followed for ob/ob mice and db/db mice studies. The dose volume for individual animals was calculated based on the most recently recorded body weight during the study period. […] Cage side observations of animals for visible clinical signs, was carried out once daily throughout the study period. Individual animal body weights were recorded twice weekly during the study period.\nThe ob/ob mice were 12 weeks of age at the start of the study and db/db mice were 8 weeks of age at the start of the study. DIO mice were 20 weeks of age at the start of the study. In each study, non-diabetic lean mice comprised the control group which received vehicle (0.5% w/v HEC and 0.5% v/v Tween 80) and obese or diabetic mice were randomly assigned to two groups based on body weight and unfasted glucose which received either vehicle (0.5% w/v HEC and 0.5% v/v Tween 80) or JBSNF-000088, 50 mg kg^−1, po, bid for 30 days."}, "in vivo": {"assay": "in vivo", "conditions": "C57BL/6, mouse"}, "[7]": {"molecular_target": "Serotonin receptor 2B (5HT2B (Homo sapiens, UniProt P41595))", "sequence (P41595 whole entry)": "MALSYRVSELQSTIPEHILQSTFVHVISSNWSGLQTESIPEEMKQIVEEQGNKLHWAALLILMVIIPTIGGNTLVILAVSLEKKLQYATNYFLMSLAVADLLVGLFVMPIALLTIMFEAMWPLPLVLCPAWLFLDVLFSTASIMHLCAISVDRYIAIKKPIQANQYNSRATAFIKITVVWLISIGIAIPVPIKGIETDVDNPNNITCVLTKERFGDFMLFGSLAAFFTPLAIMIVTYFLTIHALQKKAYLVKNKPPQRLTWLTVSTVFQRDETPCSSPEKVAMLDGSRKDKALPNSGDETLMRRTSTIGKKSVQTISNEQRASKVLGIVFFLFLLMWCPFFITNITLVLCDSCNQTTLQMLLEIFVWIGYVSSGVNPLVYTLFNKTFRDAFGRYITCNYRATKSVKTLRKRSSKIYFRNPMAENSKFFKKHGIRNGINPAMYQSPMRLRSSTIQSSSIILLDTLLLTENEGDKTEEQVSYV", "assay": "Selectivity panel: 5HT2B", "type": "cell-based", "protocol": "as §1"}},
  "note": "pIC50: −log10 of the molar value.",
  "data": [
    {"smiles": "COc1ccc(C(N)=O)cn1", "note": "[JBSNF-000088, 6-methoxynicotinamide]", "values": [
      {"measurement": "I% (antagonistic or inhibitory), K+ Channel Voltage Dependent", "setting": "[1]", "result": 3, "unit": "%"},
      {"measurement": "E% (agonistic), ADORA2A", "setting": "[2]; 10 µM", "result": 4, "unit": "%"},
      {"measurement": "inhibition at 10 µM", "setting": "[2]; read-out: I% (antagonistic or inhibitory), ADORA2A", "result": 2, "unit": "%"},
      {"measurement": "pIC50", "setting": "[3]", "result": 5.80},
      {"measurement": "remaining at 0.5 h", "setting": "in vitro", "result": "> 70", "unit": "%"},
      {"measurement": "E% (agonistic), 5HT2A", "setting": "[4]; 10 µM", "result": 3, "unit": "%"},
      {"measurement": "inhibition at 10 µM", "setting": "[4]; read-out: I% (antagonistic or inhibitory), 5HT2A", "result": -9, "unit": "%"},
      {"measurement": "E% (agonistic), CB2", "setting": "[5]; 10 µM", "result": -7, "unit": "%"},
      {"measurement": "inhibition at 10 µM", "setting": "[5]; read-out: I% (antagonistic or inhibitory), CB2", "result": 1, "unit": "%"},
      {"measurement": "inhibition at 10 µM", "setting": "[6]", "result": -1, "unit": "%"},
      {"measurement": "body weight gain", "setting": "ob/ob mice; 50 mg/kg b.i.d p.o., 30 days, vs vehicle", "result": "gained comparable weight"},
      {"measurement": "MNA levels in visceral WAT and subcutaneous fat", "setting": "ob/ob mice; 30 days, p < 0.0001 vs vehicle control", "result": "statistically significant reduction"},
      {"measurement": "fed blood glucose or insulin", "setting": "ob/ob mice; day 21, vs vehicle control", "result": "no reduction"},
      {"measurement": "glucose tolerance", "setting": "ob/ob mice; day 28", "result": "statistically significant improvement"},
      {"measurement": "AUC blood glucose (OGTT)", "setting": "ob/ob mice; day 28, p < 0.001 vs vehicle control", "result": "significantly (p < 0.001) lower"},
      {"measurement": "plasma insulin", "setting": "ob/ob mice; fed days 7, 14 or 21, fasting day 28, 15 minutes after glucose bolus", "result": "not accompanied by a reduction in plasma insulin"},
      {"measurement": "HOMA-IR index", "setting": "ob/ob mice; p < 0.001 vs vehicle control", "result": "statistically significant improvement"},
      {"measurement": "cumulative food intake", "setting": "ob/ob mice; vs vehicle", "result": "comparable"},
      {"measurement": "Vd", "setting": "in vivo", "result": 0.69, "unit": "L/kg"},
      {"measurement": "bioavailability", "setting": "in vivo", "result": 43, "unit": "%"},
      {"measurement": "clearance", "setting": "in vivo", "result": 20.5, "unit": "mL/min/kg"},
      {"measurement": "clearance", "setting": "in vivo; iv", "result": 21, "unit": "mL/min/kg"},
      {"measurement": "half-life", "setting": "in vivo; iv", "result": 30, "unit": "min"},
      {"measurement": "Cmax", "setting": "in vivo; po, 10 mg/kg", "result": 3570, "unit": "ng/mL"},
      {"measurement": "Tmax", "setting": "in vivo; po, 10 mg/kg", "result": 30, "unit": "min"},
      {"measurement": "bioavailability", "setting": "in vivo; po, 10 mg/kg", "result": "~40", "unit": "%"},
      {"measurement": "half-life", "setting": "in vivo; po, 10 mg/kg", "result": 24, "unit": "min"},
      {"measurement": "E% (agonistic), 5HT2B", "setting": "[7]; 10 µM", "result": 4, "unit": "%"},
      {"measurement": "inhibition at 10 µM", "setting": "[7]; read-out: I% (antagonistic or inhibitory), 5HT2B", "result": 13, "unit": "%"}
    ]}
  ]
}
